Tests used:
[1] = biological target: neuronal nicotinic acetylcholine receptors (Rattus norvegicus, UniProt P09483+P12390); experiment: [3H]-cytisine binding to neuronal nicotinic acetylcholine receptors, crude synaptic membranes from whole rat brain; conditions: [3H]-CYT 1.25 nM, 60 minutes at 4° C., K1 from IC50 by Cheng and Prusoff correction
Experimental: The in vitro protocols for determination of nicotinic acetylcholine channel receptor binding potencies of ligands was determined as follows.
Binding of [^3H]-cytisine ([^3H]-CYT) to neuronal nicotinic acetylcholine receptors was accomplished using crude synaptic membrane preparations from whole rat brain (Pabreza et al., Molecular Pharmacol., 1990, 39:9). Washed membranes were stored at −80° C. prior to use. Frozen aliquots were slowly thawed and resuspended in 20 volumes of buffer (containing: 120 mM NaCl, 5 mM KCl, 2 mM MgCl2, 2 mM CaCl2 and 50 mM Tris-Cl, pH 7.4 @4° C.). After centrifuging at 20,000×g for 15 minutes, the pellets were resuspended in 30 volumes of buffer.
The test compounds were dissolved in water to make 10 mM stock solutions.
Samples were incubated for 60 minutes at 4° C., then rapidly filtered through Whatman GF/B filters presoaked in 0.5% polyethyleneimine using 3×4 mL of ice-cold buffer. The filters are counted in 4 mL of Ecolume® (ICN). Nonspecific binding was determined in the presence of 10 μM (−)-nicotine and values were expressed as a percentage of total binding. IC50 values were determined with a four-parameter non-linear regression and IC50 values were converted to K1 values using the Cheng and Prusoff correction (K1=IC50/(1+[ligand]/Kd of ligand).
Each Example number corresponds to the synthetic Examples described above.

[2] = test system: mice (hot plate paradigm); experiment: mouse hot plate paradigm (analgesia, tenth jump latency); type: in vivo; conditions: footnote symbols: no significant effect at the stated dose, intraperitoneal, 30 minutes prior to testing, hot plate 55° C.
Experimental: An in vivo protocol was utilized to determine the effectiveness of nicotinic acetylcholine receptor ligands as analgesic agents in the mouse hot plate paradigm.
Separate groups of mice, (n=8/group) were utilized for each dose group. All drugs were administered by the intraperitoneal route of administration. Test drugs were dissolved in water to make a 6.2 mM stock solution. Animals were dosed with this solution (10 mL/kg body weight) for a 62 micromol/kg dose. Lower doses were administered similarly, following serial dilution of the stock solution in half-log increments. Animals were dosed 30 minutes prior to testing in the hot plate. The hot-plate utilized was an automated analgesia monitor (Model #AHP16AN, Omnitech Electronics, Inc. of Columbus, Ohio). The temperature of the hot plate was maintained at 55° C. and a cut-off time of 180 seconds was utilized. A control was run against each compound tested. Latency until the tenth jump was recorded as the dependent measure. An increase in the tenth jump latency relative to the control was considered a significant effect.

neuronal nicotinic acetylcholine receptors, sequence (P09483 31-630): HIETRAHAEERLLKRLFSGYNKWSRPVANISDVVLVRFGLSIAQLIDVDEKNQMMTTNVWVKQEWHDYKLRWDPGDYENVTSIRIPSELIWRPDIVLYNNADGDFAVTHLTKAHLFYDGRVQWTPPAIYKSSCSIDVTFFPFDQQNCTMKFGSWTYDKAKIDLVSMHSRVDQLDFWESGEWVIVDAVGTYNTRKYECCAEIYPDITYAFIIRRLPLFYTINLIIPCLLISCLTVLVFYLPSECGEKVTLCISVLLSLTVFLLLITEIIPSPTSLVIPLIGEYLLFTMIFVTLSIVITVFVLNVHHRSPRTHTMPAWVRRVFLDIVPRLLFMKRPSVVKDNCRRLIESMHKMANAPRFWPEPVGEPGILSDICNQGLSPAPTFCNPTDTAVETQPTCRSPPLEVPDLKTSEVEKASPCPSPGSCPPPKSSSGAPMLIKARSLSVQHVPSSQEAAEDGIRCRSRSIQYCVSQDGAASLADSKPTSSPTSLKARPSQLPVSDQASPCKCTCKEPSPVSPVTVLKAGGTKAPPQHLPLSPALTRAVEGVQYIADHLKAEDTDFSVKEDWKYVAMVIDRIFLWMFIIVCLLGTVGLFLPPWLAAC
neuronal nicotinic acetylcholine receptors, sequence (P12390 25-500): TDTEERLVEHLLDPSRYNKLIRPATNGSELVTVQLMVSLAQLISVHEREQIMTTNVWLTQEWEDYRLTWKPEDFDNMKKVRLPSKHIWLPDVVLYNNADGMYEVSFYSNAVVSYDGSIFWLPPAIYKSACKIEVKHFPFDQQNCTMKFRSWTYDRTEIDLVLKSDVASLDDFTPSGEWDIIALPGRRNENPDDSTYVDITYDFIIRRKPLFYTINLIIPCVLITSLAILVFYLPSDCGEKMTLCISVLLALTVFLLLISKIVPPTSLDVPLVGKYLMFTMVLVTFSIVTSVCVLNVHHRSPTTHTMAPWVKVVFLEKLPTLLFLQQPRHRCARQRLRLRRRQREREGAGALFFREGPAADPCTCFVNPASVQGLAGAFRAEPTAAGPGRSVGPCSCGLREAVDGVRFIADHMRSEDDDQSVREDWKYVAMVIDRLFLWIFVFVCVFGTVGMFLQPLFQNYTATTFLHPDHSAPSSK

Compound	Ki [1] [nM]	Analgesic MED (μmol/kg) [2]	melting point [°C]	minimal effective dose ([2]; Mus musculus, ip, 0.5 h, read-out: Analgesic MED) [µmol/kg]
5-[(S)-2-amino-1-propyloxy]-2-chloro-3-(4-vinylpyridinyl)pyridine p-toluenesulfonic acid [Example 13]	0.0761	–	–	–
C[C@@H](COc1cnc(Cl)c(C=Cc2ccncc2)c1)N(C)C (single isomer, unassigned) [Example 14]	–	* (no effect at 62)	79 to 81	–
C[C@H](COc1cnc(Cl)c(C=Cc2ccncc2)c1)N(C)C (single isomer, unassigned) [Example 39]	–	* (no effect at 62)	81 to 83	–
CN(C)[C@H](COc1cnc(Cl)c(C=Cc2ccncc2)c1)Cc1ccccc1 [Example 24, 5-[(S)-2-N-dimethyl-amino-3-phenyl-1-propyloxy]-2-chloro-3-(4-vinylpyridinyl)pyridine di-p-toluenesulfonic acid]	–	–	–	> 62
C[C@@H](COc1ccc(Cl)nc1)N(C)C.Cc1ccc(S(=O)(=O)O)cc1 [Example 27, 5-[(S)-2-dimethylamino-1-propyloxy]-2-chloro pyridine p-toluenesulfonic acid]	–	* (no effect at 62)	–	–

From patent US6656958B2, “Substituted pyridine compounds useful for controlling chemical synaptic transmission” (Abbott Laboratories, priority 2000, dated 2003)
